# Data reported in ChEMBL document CHEMBL2163339, “Discovery of potent inhibitors of human and mouse fatty acid amide hydrolases” (J Med Chem, 2012).
# The source made the active and inactive calls.
# Test system: Rattus norvegicus
# Assay: Analgesic activity in rat assessed as increase in paw withdrawal threshold at 50 mg/kg, po
# Type: functional, organism-based
# Set-up: dose 50 mg/kg
compound,measurement,value
NC(=O)c1cccc(-c2cccc(OC(=O)NC3CCCCC3)c2)c1,Activity,inactive
